# Experimental data as given in ChEMBL document CHEMBL1201862, “PubChem BioAssay data set” (2004).
# The source made the active and inactive calls.
# Legend:
# [1] = A375 melanoma cell viability loss, dose response, counter-screen for MITF inhibitor project, CellTiter-Glo luminescence, dry powder, set 4 (AID 624364); assay type: functional, cell-based; settings: A-375;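 further: A375 melanoma cells are MITF independent so this is a counter screen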
# [2] = THP-1 cell cytotoxicity, dose response, cytotoxicity control for non-replicating M. tuberculosis project (AID 489025); assay type: functional
# [3] = cells; assay type: functional
# [4] = biological target: Fructose-bisphosphate aldolase (Mycobacterium tuberculosis, UniProt P9WQA3); assay: Fluorescence-based biochemical high throughput dose response assay for inhibitors of the fructose-bisphosphate aldolase (FBA) of M. tuberculosis.; assay type: functional
# Sequence of Fructose-bisphosphate aldolase (P9WQA3 whole entry): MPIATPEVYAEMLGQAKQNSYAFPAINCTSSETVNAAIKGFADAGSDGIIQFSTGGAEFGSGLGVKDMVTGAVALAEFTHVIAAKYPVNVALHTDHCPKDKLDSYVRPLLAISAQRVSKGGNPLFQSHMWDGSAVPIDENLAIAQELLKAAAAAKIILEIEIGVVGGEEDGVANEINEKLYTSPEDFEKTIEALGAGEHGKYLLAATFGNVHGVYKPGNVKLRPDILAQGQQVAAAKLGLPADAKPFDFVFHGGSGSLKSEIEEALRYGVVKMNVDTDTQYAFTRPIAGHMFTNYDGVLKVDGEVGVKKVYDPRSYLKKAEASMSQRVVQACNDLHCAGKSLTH
# [5] = tested on: INS1; assay: beta cell apoptosis inhibitors, cytokine rescue, dose response, luminescence, retest (AID 449756); assay type: functional, cell-based; settings: Rattus norvegicus;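 further: cell death triggered by IL-1 beta plus TNF-alpha plus IFN-gamma mixture; protective hits raise ATP signal compared with cytokine alone wells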
# [6] = biological target: Protein Wnt-3a (Mus musculus, UniProt P27467); assay: Wnt3a-driven reporter signaling inhibition, dose response, selectivity assay for Gli-SUFU antagonist project, Wnt-LIGHT cells, luminescence (AID 651570); assay type: functional; settings: read-out: IC50_Mean;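 further: Wnt-LIGHT reporter cells stimulated with conditioned medium from Wnt3a-producing cells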
# Sequence of Protein Wnt-3a (P27467 whole entry): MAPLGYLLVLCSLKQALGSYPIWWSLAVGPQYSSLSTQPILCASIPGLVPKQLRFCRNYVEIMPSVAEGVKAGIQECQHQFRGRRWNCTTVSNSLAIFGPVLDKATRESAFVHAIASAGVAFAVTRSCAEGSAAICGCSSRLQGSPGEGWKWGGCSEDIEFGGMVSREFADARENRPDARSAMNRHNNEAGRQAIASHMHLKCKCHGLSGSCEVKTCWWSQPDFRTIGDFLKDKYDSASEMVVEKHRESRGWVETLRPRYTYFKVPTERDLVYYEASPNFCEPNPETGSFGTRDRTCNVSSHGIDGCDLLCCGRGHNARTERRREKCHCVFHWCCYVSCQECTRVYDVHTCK
# [7] = biological target: Galanin receptor type 3 (Homo sapiens, UniProt O60755); assay: Fluorescence-based cell-based primary high throughput dose response assay to identify antagonists of the Galanin Receptor 3 (GalR3).; assay type: functional
# Sequence of Galanin receptor type 3 (O60755 whole entry): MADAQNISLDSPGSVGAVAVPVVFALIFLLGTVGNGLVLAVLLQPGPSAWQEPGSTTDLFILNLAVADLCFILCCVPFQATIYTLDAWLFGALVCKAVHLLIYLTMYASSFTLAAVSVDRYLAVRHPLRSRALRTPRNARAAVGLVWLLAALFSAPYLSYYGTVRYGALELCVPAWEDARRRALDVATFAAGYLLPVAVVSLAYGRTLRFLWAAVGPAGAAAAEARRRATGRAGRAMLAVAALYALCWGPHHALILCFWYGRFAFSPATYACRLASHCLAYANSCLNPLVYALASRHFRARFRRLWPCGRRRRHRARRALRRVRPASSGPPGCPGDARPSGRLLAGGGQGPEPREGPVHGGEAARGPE
# [8] = cells; assay type: functional, cell-based; settings: HEK-CNG
# [9] = biological target: T1, COUP transcription factor 2 (Homo sapiens, UniProt P24468); assay: Luminescence-based cell-based high throughput dose response assay to identify inhibitors of COUP-TFII (NR2F2).; assay type: functional;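 further: HEK293 cells transiently cotransfected with COUP-TFII expression vector and reporter; luciferase reporter luminescence driven by COUP-TFII from the pX2-168 reporter plasmid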
# T1 sequence (P24468 whole entry): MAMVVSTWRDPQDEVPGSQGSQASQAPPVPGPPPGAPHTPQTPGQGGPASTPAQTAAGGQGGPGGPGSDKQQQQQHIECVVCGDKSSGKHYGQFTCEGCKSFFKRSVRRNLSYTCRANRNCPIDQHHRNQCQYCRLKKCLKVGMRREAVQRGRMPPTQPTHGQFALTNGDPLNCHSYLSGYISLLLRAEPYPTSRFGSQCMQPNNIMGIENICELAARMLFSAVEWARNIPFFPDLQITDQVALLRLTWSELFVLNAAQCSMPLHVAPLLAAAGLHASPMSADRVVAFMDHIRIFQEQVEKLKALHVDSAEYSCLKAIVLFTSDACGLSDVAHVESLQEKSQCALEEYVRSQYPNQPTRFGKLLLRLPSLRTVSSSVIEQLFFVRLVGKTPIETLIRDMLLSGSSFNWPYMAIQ
# [10] = biological target: Disintegrin and metalloproteinase domain-containing protein 17 (Homo sapiens, UniProt P78536); assay: ADAM17 protease inhibitors, dose response, counter-screen for ADAM10 exosite inhibitor project, biochemical, quenched FRET substrate (AID 743253)
# Sequence of Disintegrin and metalloproteinase domain-containing protein 17 (P78536 whole entry, the tested form may be a part): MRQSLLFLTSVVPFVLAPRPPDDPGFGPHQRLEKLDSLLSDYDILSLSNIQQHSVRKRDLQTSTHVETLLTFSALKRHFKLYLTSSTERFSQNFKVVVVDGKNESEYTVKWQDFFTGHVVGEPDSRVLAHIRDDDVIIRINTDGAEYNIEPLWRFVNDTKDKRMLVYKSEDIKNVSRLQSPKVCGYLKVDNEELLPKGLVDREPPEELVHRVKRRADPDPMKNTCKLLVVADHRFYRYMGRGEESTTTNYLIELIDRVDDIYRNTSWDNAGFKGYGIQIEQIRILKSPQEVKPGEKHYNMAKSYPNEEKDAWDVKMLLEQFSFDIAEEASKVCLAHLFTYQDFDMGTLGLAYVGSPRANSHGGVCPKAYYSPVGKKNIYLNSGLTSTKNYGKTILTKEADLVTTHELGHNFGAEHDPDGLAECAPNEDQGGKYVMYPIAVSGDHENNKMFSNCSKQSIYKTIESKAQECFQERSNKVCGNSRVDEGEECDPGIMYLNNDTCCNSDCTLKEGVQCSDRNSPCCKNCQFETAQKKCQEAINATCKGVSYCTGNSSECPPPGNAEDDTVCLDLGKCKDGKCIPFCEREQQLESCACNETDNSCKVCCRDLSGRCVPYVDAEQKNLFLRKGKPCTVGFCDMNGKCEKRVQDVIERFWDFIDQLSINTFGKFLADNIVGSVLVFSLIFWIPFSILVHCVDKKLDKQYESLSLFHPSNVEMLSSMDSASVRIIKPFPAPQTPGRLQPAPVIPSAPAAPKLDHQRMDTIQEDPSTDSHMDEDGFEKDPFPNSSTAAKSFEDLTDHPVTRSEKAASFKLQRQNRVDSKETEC
# [11] = ADAM10 inhibitors, peptide cleavage, dose response, biochemical, QFRET (AID 743254);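 further: ADAM10 enzyme with the DM2 quenched FRET peptide as substrate; EDANS fluorescence gain as the protease cuts the substrate; inhibitor potency against ADAM10 proteolytic activity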
# [12] = biological target: Paired box protein Pax-8 (Homo sapiens, UniProt Q06710); assay: inhibitors of PAX8-driven TPO luciferase reporter, dose response, RMG-I cells, cherry-pick (AID 687027); assay type: functional, cell-based;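 further: luciferase reporter driven by Pax8 target thyroperoxidase promoter measured by SteadyGlo luminescence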
# Sequence of Paired box protein Pax-8 (Q06710 whole entry): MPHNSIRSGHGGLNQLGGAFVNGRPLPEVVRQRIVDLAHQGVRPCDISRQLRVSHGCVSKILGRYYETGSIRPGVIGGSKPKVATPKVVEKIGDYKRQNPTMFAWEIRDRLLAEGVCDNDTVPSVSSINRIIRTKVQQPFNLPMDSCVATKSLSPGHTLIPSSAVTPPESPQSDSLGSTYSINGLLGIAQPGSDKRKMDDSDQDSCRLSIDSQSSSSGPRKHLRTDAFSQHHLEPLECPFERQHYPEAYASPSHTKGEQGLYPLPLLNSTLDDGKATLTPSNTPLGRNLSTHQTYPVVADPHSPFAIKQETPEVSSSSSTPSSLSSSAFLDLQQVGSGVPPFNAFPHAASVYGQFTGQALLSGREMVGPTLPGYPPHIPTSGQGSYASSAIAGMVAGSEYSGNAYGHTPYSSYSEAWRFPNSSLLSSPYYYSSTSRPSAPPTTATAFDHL
# [13] = NIH:OVCAR-3 ovarian cancer cell cytotoxicity, dose response, PAX8 inhibitor project, plate reader, dry powder samples (AID 743044); assay type: functional, cell-based
# [14] = IGROV1 ovarian cancer cell cytotoxicity, dose response, PAX8 inhibitor project, plate reader, dry powder samples (AID 743043); assay type: functional, cell-based; settings: IGROV-1
# [15] = cytotoxicity in OVCAR8 ovarian cancer cells, dose response, PAX8 project, cell-based, plate reader, dry powder samples (AID 743197); assay type: functional; settings: OVCAR-8
# [16] = growth suppression of PTEN-null colon cells, dose response, cell-based, HCT116 PTEN knockout (AID 1047); assay type: functional;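 further: HCT116 colon tumor cells with PTEN knocked out; cells exposed to compound for 60 hours before readout; potency for loss of cell viability measured by luminescence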
# [17] = growth suppression of beta-catenin-knockout colon cells, dose response, cell-based, HCT116, human colon tumor (AID 1045); assay type: functional;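 further: HCT116 colon tumor cells with beta catenin knocked out; cells exposed to compound for 60 hours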
# [18] = ADAM10 protease inhibitors, dose response, selectivity assay for ADAM17 exosite inhibitor project, biochemical, FRET peptide substrate, recombinant human ADAM10 (AID 743259);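 further: ADAM10 enzyme cleaving a FRET peptide substrate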
# [19] = biological target: Kallikrein-7 (Homo sapiens, UniProt P49862); assay: Fluorescence Intensity-based biochemical primary high throughput dose response assay to identify activators of kallikrein-7 (K7) zymogen.
# Sequence of Kallikrein-7 (P49862 whole entry): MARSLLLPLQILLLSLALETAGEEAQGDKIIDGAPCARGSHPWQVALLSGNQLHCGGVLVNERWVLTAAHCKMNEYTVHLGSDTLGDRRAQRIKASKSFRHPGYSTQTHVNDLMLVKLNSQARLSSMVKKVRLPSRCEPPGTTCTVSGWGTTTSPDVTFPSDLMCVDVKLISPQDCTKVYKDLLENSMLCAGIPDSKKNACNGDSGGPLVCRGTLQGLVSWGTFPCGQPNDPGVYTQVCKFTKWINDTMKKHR
# [20] = biological target: T2, Cytochrome P450 1A2 (Homo sapiens, UniProt P05177);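 further: PubChem cytochrome P450 panel assay, CYP1A2 panel member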
# T2 sequence (P05177 whole entry): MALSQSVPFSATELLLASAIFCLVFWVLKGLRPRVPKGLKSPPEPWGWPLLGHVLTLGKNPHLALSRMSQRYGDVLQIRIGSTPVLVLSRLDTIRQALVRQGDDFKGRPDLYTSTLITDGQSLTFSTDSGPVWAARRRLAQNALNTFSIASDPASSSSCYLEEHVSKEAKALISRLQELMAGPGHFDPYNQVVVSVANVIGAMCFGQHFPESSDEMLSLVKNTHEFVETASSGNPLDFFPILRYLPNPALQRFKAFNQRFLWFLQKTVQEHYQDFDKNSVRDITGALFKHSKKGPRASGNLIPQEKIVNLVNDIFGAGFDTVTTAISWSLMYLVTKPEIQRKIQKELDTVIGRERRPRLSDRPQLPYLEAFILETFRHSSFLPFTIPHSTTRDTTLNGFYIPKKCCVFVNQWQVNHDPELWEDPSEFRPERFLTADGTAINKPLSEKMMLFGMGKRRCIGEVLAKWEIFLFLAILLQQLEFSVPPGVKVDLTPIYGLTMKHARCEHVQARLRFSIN
# [21] = Luminescence Cell-Based Dose Response HTS to Identify Inhibitors of 5'UTR Stem-Loop Driven Prion Protein mRNA Translation in H4 Neuroglioblastoma Cells. [Related pubchem assays: 1827 (Project Summary), 1813 (Primary HTS)]; assay type: functional
# [22] = inhibitors of SNCA 5'UTR-driven reporter translation, confirmation, H4 neuroglioma cells, luminescence (AID 1988); assay type: functional, cell-based
# [23] = tested on: HEK293; assay: inhibitors of LMP1-driven NF-kB reporter, dose response, cell-based, HEK293, luciferase, cherry-pick (AID 588343); assay type: functional; settings: Homo sapiens
# [24] = A549 cell cytotoxicity, dose response, cytotoxicity control, plate reader, cherry-pick, antagonist series (AID 743412); assay type: functional, cell-based
# [25] = HepG2 cell cytotoxicity, dose response, cytotoxicity control, plate reader, cherry-pick, antagonist series (AID 743416); assay type: functional, cell-based
# [26] = LGR2 antagonists, dose response, cell-based, HEK293, CRE-luciferase reporter, cherry pick, set 2 (AID 743343); assay type: functional;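 further: transfected cells were stimulated with diluted bursicon conditioned medium after compound addition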
# [27] = MC4R antagonists, dose response, counter-screen for LGR2 antagonist project, cell-based, plate reader, cherry pick (AID 743444); assay type: functional;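 further: transfected HEK 293 cells stimulated with alpha-MSH peptide; potency of inhibitors of the alpha-MSH evoked signal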
structure (smiles),measurement,setting,value
C=CCNC1=C(NS(=O)(=O)c2cccs2)C(=O)c2ccccc2C1=O,AC50,[1],> 70 µM (inactive)
COc1ccc2nc(N=C(N)NC(=O)C(C)(C)C)nc(C)c2c1,CC50,[2],> 40 µM (active)
same,IC50,[3],9.61 µM (active)
same,IC50,[4],1.89 µM (active)
NC(=O)c1c(-c2ccc(Cl)cc2Cl)csc1NC(=O)Cc1ccccc1,AC50,[5],2.86 µM (active)
same,IC50,[6],1.91 µM (active)
same,IC50,[7],0.513 µM (active)
same,EC50,[8],> 29.9 µM (inactive)
same,IC50,[9],5.15 µM (active)
CC(C)C[C@H](NC(=O)c1nc[nH]c1C(=O)Nc1ccc(CNC(=O)OC(C)(C)C)cc1)C(=O)OC(C)(C)C,IC50,[10],> 69.5 µM (inactive)
COc1ccc(NC(S)=Nc2cc(-c3ccccc3)[nH]n2)cc1Cl,IC50,[11],> 69.5 µM (inactive)
same,IC50,[10],> 69.5 µM (inactive)
C[C@@H]1CCCCO[C@H](CN(C)Cc2ccc(Cl)c(Cl)c2)[C@@H](C)CN([C@@H](C)CO)C(=O)c2cc(NC(=O)Cc3ccccc3)ccc2O1,AC50,[12],11.2 µM (active)
same,AC50,[13],33.4 µM (active)
same,AC50,[14],50.5 µM (active)
same,AC50,[15],> 70 µM (inactive)
COc1cc(-c2nc(-c3ccc4c(c3)-c3ccccc3S4(=O)=O)c(-c3ccccc3)[nH]2)cc(OC)c1O,EC50,[16],14 µM (active)
same,EC50,[17],19.8 µM (active)
same,IC50,[18],> 69.5 µM (inactive)
CCC(C)C(NS(=O)(=O)c1ccc(C)cc1)C(=O)Oc1ccc2c3c(c(=O)oc2c1)CCC3 (stereo not drawn),EC50,[19],> 69.5 µM (inactive)
same,AC50,[20],11.2 µM (inconclusive)
O=C(NCCc1ccccc1)c1ccc2nccnc2c1,EC50,[21],9.34 µM (active)
same,EC50,[22],9.37 µM (active)
same,AC50,[23],3.05 µM (active)
same,AC50,[24],22.1 µM (active)
same,AC50,[25],20.3 µM (active)
same,AC50,[26],5 µM (active)
same,AC50,[27],4.77 µM (active)
